Data on three compounds can be found in ChEMBL document CHEMBL1201862, “PubChem BioAssay data set” (2004).

A word on the IC50: it is the concentration that inhibits the measured activity by half.

Calls of active or inactive are those of the source. No stated cut-off is given here; in the data, actives have a measured IC50 and inactives only a lower limit.

Chain of Envelope glycoprotein gp160 (Q6QLK5 whole entry, the tested form may be a part): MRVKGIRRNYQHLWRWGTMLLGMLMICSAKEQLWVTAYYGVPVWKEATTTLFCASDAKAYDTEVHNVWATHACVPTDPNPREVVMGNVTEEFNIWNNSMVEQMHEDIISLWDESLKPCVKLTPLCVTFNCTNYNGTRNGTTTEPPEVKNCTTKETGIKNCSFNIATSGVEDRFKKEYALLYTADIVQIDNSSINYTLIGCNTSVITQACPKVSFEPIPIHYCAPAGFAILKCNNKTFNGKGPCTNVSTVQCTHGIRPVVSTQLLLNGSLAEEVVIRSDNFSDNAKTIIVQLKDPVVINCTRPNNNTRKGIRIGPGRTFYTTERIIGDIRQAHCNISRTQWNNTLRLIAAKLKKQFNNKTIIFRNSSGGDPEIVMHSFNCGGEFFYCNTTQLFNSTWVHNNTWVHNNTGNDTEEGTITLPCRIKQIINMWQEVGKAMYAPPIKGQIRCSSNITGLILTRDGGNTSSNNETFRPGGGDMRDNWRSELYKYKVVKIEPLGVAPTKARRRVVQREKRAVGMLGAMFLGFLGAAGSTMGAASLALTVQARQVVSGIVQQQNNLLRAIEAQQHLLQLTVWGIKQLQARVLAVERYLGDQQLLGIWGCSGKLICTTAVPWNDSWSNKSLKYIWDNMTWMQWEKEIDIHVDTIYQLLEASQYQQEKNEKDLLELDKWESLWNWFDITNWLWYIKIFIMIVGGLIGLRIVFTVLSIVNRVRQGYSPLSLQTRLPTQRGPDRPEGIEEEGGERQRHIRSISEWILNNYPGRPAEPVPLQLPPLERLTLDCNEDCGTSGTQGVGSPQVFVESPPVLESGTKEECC

The experiment has as its target Envelope glycoprotein gp160 (Human immunodeficiency virus 1, UniProt Q6QLK5). The experiment is described as follows: cell-free HIV fusion peptide-binding blockers – biochemical, uHTS, fluorescence dequenching, […] (AID 1986).
As for `COc1cc(/C=C2\C(=N)N3N=C(S(C)(=O)=O)SC3=NC2=O)cc(OC)c1OCCOc1cccc(C)c1`, the half-maximal inhibitory concentration (IC50) was 13.8 µM (active). Consider `N#Cc1c(O)nc(SCC(=O)Nc2ccc(OC(F)(F)Cl)cc2)nc1-c1ccccc1`, for which the half-inhibitory concentration (IC50) is 15.6 µM (active).

`O=C(O)c1cccc(-n2cccc2/C=C2/NC(=O)N(c3ccc(Cl)cc3)C2=O)c1`: the half-inhibitory concentration (IC50) is 16.9 µM (active).
